Measurements: US6358988B1, “Process and composition for the antiparasitic treatment of the surroundings of animals” (priority 1996, dated 2002)

Columns and labels:
adult Tenebrio molitor = assay: whole plant or invertebrate; conditions: in Solanum tuberosum, 24 h
Experimental: Ten (10) gram pieces of potato were placed into individual jars. […] The acetone-surfactant solution comprised acetone. Triton® 152, and Triton® 172 mixed in volumetric ratio of about 785:1:3. […] Adult Tenebrio molitor and a strip of paper towel 1 cm by 3 cm were added to each jar. Mortality was rated at 1 day after treatment.
If the actually observed value is greater than the expected value […] then there is synergism.

[1] = tested on: darkling beetles (Alphitobius diaperinus); assay: Poultry house litter treatment, darkling beetle population monitored with 9 traps; assay type: in vivo; conditions: water-dispersible granules containing 80% of compound (A), 150 g/ha; during the 10th week (end of a rearing cycle)
Experimental: The treatment took place on the clean litter before the poultry was installed therein. The clean litter was essentially composed of straw.
On the day after the treatment, a group of chicks aged 1 to 2 days was installed in the rearing house at the rate of approximately 7 animals per m^2.
The change in the population of darkling beetles (Alphitobius diaperinus) in the litter was regularly monitored using 9 homogeneously distributed traps. Measurements were carried out each week from the second week after the treatment until rearing was halted.
The total population of darkling beetles in the 9 traps of the treated poultry house varied between 11 and 96 until the 9th week after treatment whereas, in a similar but untreated poultry house, the population of darkling beetles (larvae and adults) oscillated between 1000 and 3000 at each counting point.

fly larvae = conditions: 25 ppm of compound (A); surface of poultry dung and cow dung
Experimental: An application was carried out at the surface of poultry dung and of cow dung treated beforehand with fly larvae.

Row | Compound | mortality at 6.25 ppm (adult Tenebrio molitor) [%] | mortality at 25 ppm (adult Tenebrio molitor) [%] | mortality at 100 ppm (adult Tenebrio molitor) [%] | mortality at 400 ppm (adult Tenebrio molitor) [%] | control of darkling beetles [1] [%] | inhibition of larval development of the flies (effectiveness with respect to untreated controls) (fly larvae) [%]
1 | CNC(=O)Oc1cccc2ccccc12 [Carbaryl, 1-naphthyl methylcarbamate, reference compound] | 0 | 27 | 80 | 93 |  | 
2 | N#Cc1nn(-c2c(Cl)cc(C(F)(F)F)cc2Cl)c(N)c1[S+]([O-])C(F)(F)F (stereo not drawn) [compound (A), 1-[2,6-Cl2-4-CF3phenyl]-3-CN-4-[SO—CF3]-5-NH2pyrazole] |  |  |  |  | 86 | 100
